Source: patent US20120035260A1, “TELLURIUM-CONTAINING COMPOUNDS FOR AFFECTING FEMALE'S REPRODUCTIVE SYSTEM FOLLOWING CHEMOTHERAPY AND/OR RADIOTHERAPY” (BIOMAS LTD., priority 2009, published 2012)

Columns and labels:
[1] = cancer patients, AS101 in combination with chemotherapy; cited from earlier work
ovarian follicles [2] = format: in vivo
Procedure: Follicular apoptosis was visualized using the TUNEL staining of ovaries from additional group of mice sacrificed at 12, 24 and 48 hours after a single injection of 150 mg/kg Cy.

tumor = conditions: cited from earlier work
[3] = cited from earlier work
ovarian follicles [4] = format: in vivo, female Balb/c mice; conditions: single 75, 100 or 150 mg/kg Cy or 4 weekly 75 mg/kg Cy, AS101 as co-treatment with Cy; for ratio of primary follicles relative to primordial follicles: FIG. 3A; for ratio of secondary follicles relative to primordial follicles: FIG. 3B
Procedure: (§1) 6 week old female Balb/c mice were divided randomly into 4 groups. The mice in the treatment groups received cyclophosphamide (Cy) with or without co-treatment with AS101. Control mice received injections of phosphate buffer saline (PBS) or AS101. Cy treatment consisted of a single intraperitoneal injection of 75, 100 or 150 mg/kg Cy, or 4 weekly injections of 75 mg/kg Cy. AS101 was injected at a dose of 10 mg/kg every other day starting 1 week prior to Cy administration until 1 week after the last administration of Cy. PBS was injected on the same days as described for AS101.
(§2) Both ovaries were removed 7 days after the last Cy administration treatment, and fixed in 4% paraformaldehyde in PBS. The ovaries were embedded in paraplast and serially sectioned to 5 μm slices, and stained with haematoxylin/eosin. Care was taken to ensure that both ovaries were removed from each mouse in their entirety for histological processing. Primordial, primary and secondary follicles were counted by two blinded examiners who were unaware of the treatments, using a light microscope (AxioImager Z1, Zeiss, Oberkochen, Germany) in bright-field mode using a X20 objective. To avoid counting the same follicle twice, only one section in each set of five consecutive sections was used. The relative distribution of different stages of early follicle growth was then calculated.
(§3) Follicles were classified as primordial follicles (PMF) if they contained an oocyte surrounded by a partial or complete layer of squamous pregranulosa cells without a theca layer. In this species, PMF are located almost exclusively in the ovarian cortex, and they are very small (about 15 μm diameter). The follicular count of each follicle type was then multiplied by 5 to reach a representative of total follicles [Meirow et al., Hum Reprod 1999; 14:1903-1907]. The data from follicular count is presented as the percentage of the count obtained from the PBS-treated control group.
The populations of primary follicles, secondary follicles and primordial follicles (PMF) were characterized following single injections of 75, 100 or 150 mg/kg Cy or 4 weekly injections of 75 mg/kg Cy.

[5] = system: ovarian primordial follicles (PMF); assay: Primordial follicle (PMF) counts in ovaries of cyclophosphamide-treated mice; format: in vivo, female Balb/c mice; conditions: AS101 10 mg/kg every other day where co-treated; for ovarian PMF count, % of that of the control (PBS) group: ovaries removed 7 days after Cy
Procedure: as §1, §2, §3
Student's T-test was performed to assess the differences between groups. Statistical significance was determined at p<0.05.

[6] = system: anti-Mullerian hormone (AMH); assay: Plasma anti-Mullerian hormone (AMH) levels by ELISA; format: in vivo, female Balb/c mice; conditions: 4 weekly injections of 75 mg/kg Cy; control (PBS) group 10.7±2.1 ng/ml
Procedure: as §1
Anti-Mullerian hormone (AMH) levels in the plasma were measured by ELISA techniques according to the manufacturer instruction (DSL, Webster, Tex.).
Mice were administered PBS, AS101, Cy or Cy+AS101 for 4 weeks, as described hereinabove.

Row | Compound | severity of neutropenia, thrombocytopenia and alopecia that accompany chemotherapy [1] | TUNEL staining of ovary, follicle appearance (ovarian follicles [2]; co-therapy with a chemotherapeutic agent and AS101, FIG. 5C) | apoptotic (TUNEL) stain in primordial follicles (ovarian follicles [2]; ovary treated with AS101, FIG. 5B) | effect in combination with Cy (tumor; treatment of tumor-bearing mice) | anti-tumoral effect (tumor; variety of tumor models in mice and humans) | survival of mice ([3]; mice treated with various cytotoxic drugs or radiation) | protection from hematopoietic damage ([3]; mice, lethal and sublethal doses of chemotherapeutic drugs, including cyclophosphamide) | ratio of primary follicles relative to primordial follicles (ovarian follicles [4]) | ratio of secondary follicles relative to primordial follicles (ovarian follicles [4]) | apoptotic (TUNEL) staining in granulosa cells of growing follicles (ovarian follicles [2]; 24 hours after a single treatment with 150 mg/kg Cy, FIG. 5A) | PMF count, % of that of the control group ([5]; 75 mg/kg Cy once a week for 4 weeks, ovaries removed 7 days after last Cy) | ovarian PMF count, % of that of the control (PBS) group ([5]; single i.p. injection of 75 mg/kg Cy) | ovarian PMF count, % of that of the control (PBS) group ([5]; single i.p. injection of 100 mg/kg Cy) | ovarian PMF count, % of that of the control (PBS) group ([5]; single i.p. injection of 150 mg/kg Cy) | plasma AMH levels [6]
1 | Cl[TeH]1(Cl)(Cl)OCCO1 [AS101, ammonium trichloro(dioxyethylene-O,O′)tellurate] | significant reduction in the severity | follicles destroyed by chemotherapy as well as healthy primordial follicles of ovary are observed | no apoptotic stain was detected | synergistic effect with Cy | exhibits an anti-tumoral effect | increase the survival of mice | protect mice from hematopoietic damage | prevented the Cy-induced increase in these ratios | prevented the Cy-induced increase in these ratios | – | – | – | – | – | –
2 | O=P1(N(CCCl)CCCl)NCCCO1 (centres unmarked) [Cy, cyclophosphamide] | – | – | – | – | – | – | – | increased the ratio | increased the ratio | extensive apoptotic staining | 12.2%±9.5% | 52.1%±15.1% | 48%±12.6% | 38%±22.2% | 7.2 ± 1.9 ng/mL
